The source of these data is US4590207A, “Therapeutic and/or preventive ophthalmic solution for intraocular hypertension and glaucoma” (Eisai Co., Ltd., priority 1984, dated 1986).

The structures appear in SMILES notation.

One data set deals with ddy mice. Kind of data set: Acute toxicity (intravenous), mortality 24 hours after administration. The conditions noted are these: for mortality: 24 hours. In kind it is in vivo. The procedure:
500 mg/kg and 1,000 mg/kg of each of isosorbide-5-mononitrate (5-ISMN) and isosorbide-2-mononitrate (2-ISMN) were intravenously injected to ddy mice of approximately 20 g in body weight to observe their toxicity. The mortality was determined 24 hours after the administration.

For data set [1], the system named is intraocular hypertension of rabbits caused by α-chymotrypsin. Kind of data set: Effect on intraocular hypertension of rabbits caused by α-chymotrypsin (intraocular tension). In kind it is in vivo, male white rabbits. Details: Intraocular tension: unit not given here. Conditions: for Intraocular tension: 35 μl instilled, mean of five animals ± standard error; for effects of lowering intraocular tension (conclusion): ophthalmic solution containing 5-ISMN or 2-ISMN. How it is done:
Models of intraocular hypertension were prepared by the use of male white rabbits of approximately 2.5 kg in body weight according to the method reported by Sears (cf. Sears, D. and Sears, M., Am. J. Ophthalmol., Vol. 77, No. 3, p. 378 to 383, 1974). A rabbit was anesthetized by intravenously injecting 20 mg/kg of pentobarbital sodium and 2% of lidocaine was instilled in the left eye of the animal to anesthetize locally. A volume of 0.5 ml physiological saline solution was injected into the anterior chamber of the left eye with a needle and subsequently 0.5 ml of α-chymotrypsin 300 NFU/ml was injected into the posterior chamber with another needle while holding the former needle as such. After removing the needle inserted into the posterior chamber, the needle inserted into the anterior chamber was removed. The rabbit experimentally suffering from intraocular hypertension thus prepared was allowed to stand for 25 to 30 days to thereby recover from postoperative keratitis or conjunctivitis and to hold a stable intraocular hypertension. Then it was subjected to the test.
Intraocular tension was determined with a Perkin's Hand Applanation Tonometer (a product of Clement Clark, London) under anesthesia with 2% halothane, having 2 l/min of oxygen, and local anesthesia with 0.4% of benoxil.
Intraocular tension was measured five times and the mean value was recorded.
5-ISMN and 2-ISMN were employed as the test compounds and dissolved in a physiological saline solution.
A volume of 35 μl of each solution was instilled in the left eye treated with α-chymotrypsin. Each solution was administered to five rabbits according to a crossover design.

Another data set can be described thus: Solubility in water. In kind it is physicochemical.
The mark [2] stands for this setting: 500 mg/kg intravenous, ten animals.

Regarding `O=[N+]([O-])OC1COC2C(O)COC12` (stereo not drawn) [5-ISMN, isosorbide-5-mononitrate], in the data set on ddy mice (500 mg/kg intravenous), the symptoms observed entry is “Slight ataxia and restlessness”. Further, the “time to disappearance of symptoms (ataxia and restlessness)” value in the data set on ddy mice (500 mg/kg intravenous) is listed as at most 30 min. Moreover, the mortality result with ddy mice (setting [2]) is recorded as “No animal died of the ten animals”; in the data set on ddy mice (1,000 mg/kg intravenous), “no animal died”. The Intraocular tension was 30.5 ± 0.8 in data set [1] (0 hr, 0.3% solution); 30.2 ± 0.5 in data set [1] (0 hr, 1.0% solution); 30.8 ± 0.8 in data set [1] (0 hr, 3.0% solution); 21.5 ± 0.5 in data set [1] (1 hr, 0.3% solution); 22.0 ± 1.9 in data set [1] (1 hr, 1.0% solution); 20.3 ± 0.9 in data set [1] (1 hr, 3.0% solution). Also, the Intraocular tension is 20.1 ± 0.9 in data set [1] (3 hr, 0.3% solution); 19.1 ± 0.6 in data set [1] (3 hr, 1.0% solution); 16.4 ± 0.5 in data set [1] (3 hr, 3.0% solution); 19.8 ± 1.2 in data set [1] (5 hr, 0.3% solution); 18.6 ± 0.9 in data set [1] (5 hr, 1.0% solution); 15.7 ± 0.5 in data set [1] (5 hr, 3.0% solution). Further, the Intraocular tension in data set [1] (7 hr, 0.3% solution) is on record as 20.5 ± 0.7; in data set [1] (7 hr, 1.0% solution) it was 18.5 ± 1.0; in data set [1] (7 hr, 3.0% solution), 16.2 ± 1.8; in data set [1] (9 hr, 0.3% solution), 19.6 ± 1.8; in data set [1] (9 hr, 1.0% solution), 19.8 ± 1.3; in data set [1] (9 hr, 3.0% solution) it was 16.2 ± 2.2. In data set [1] (dose of 0.3 to 3%), the “dose dependence of effect of lowering intraocular tension” value is listed as “would depend on the dose”. For the same molecule, in data set [1] (dose of 0.3 to 3%), the “duration of effect of lowering intraocular tension” value is on record as “at least nine”. The “effect of lowering intraocular tension” value in data set [1] (dose of 0.3 to 3%) is on record as “remarkable effect of lowering intraocular tension”. Besides, the “effects of lowering intraocular tension (conclusion)” value in data set [1] was “remarkable, continuous effects of lowering intraocular tension”. In the data set “Solubility in water”, the solubility in water entry was “highly soluble in water”.

With `O=[N+]([O-])OC1COC2C(O)COC12` (stereo not drawn) [2-ISMN, isosorbide-2-mononitrate], in the data set with ddy mice (500 mg/kg and 1,000 mg/kg groups, intravenous), the symptoms observed entry was “Slight ataxia”. Moreover, the mortality entry with ddy mice (setting [2]) and in the data set on ddy mice (1,000 mg/kg intravenous) was “No animal died of the ten animals” in each case. The Intraocular tension in data set [1] (0 hr, 3.0% solution) was 31.2 ± 0.6; in data set [1] (1 hr, 3.0% solution), 29.0 ± 0.8; in data set [1] (3 hr, 3.0% solution) it was 29.1 ± 0.9; in data set [1] (5 hr, 3.0% solution), 25.1 ± 1.4; in data set [1] (7 hr, 3.0% solution), 24.6 ± 1.4; in data set [1] (9 hr, 3.0% solution), 21.8 ± 1.3. Moreover, the “effect of lowering intraocular tension” value in data set [1] (dose of 3%) is given as “exhibits an effect of lowering intraocular tension”. The “effects of lowering intraocular tension (conclusion)” value in data set [1] is on record as “remarkable, continuous effects of lowering intraocular tension”. For the same molecule, the solubility in water entry in “Solubility in water” is listed as “highly soluble in water”.
